{
  "source": "patent US20250049922A1",
  "about": "“PHARMACEUTICAL COMPOSITION COMPRISING P-BORONOPHENYLALANINE” (priority 2021, published 2025)",
  "test": "Solubilization of BPA in aqueous solutions, visual inspection of dissolution",
  "format": "physicochemical",
  "conditions": "RT, after 2 hours",
  "description": "BPA (L-p-boronophenylalanine, Katchem, Praha, Czech Republic) was weighed to a set of test tubes, 15 mg each (72 μmol). At room temperature (RT), 0.5 ml each of various aqueous solutions as listed below, were added into parallel test tubes and mixed vigorously. After 2 hours, the results of visual inspection of BPA dissolution and pH were as follows: […]",
  "data": [
    {"smiles": "N[C@@H](Cc1ccc(B(O)O)cc1)C(=O)O", "note": "[BPA, L-p-boronophenylalanine]", "values": [
      {"measurement": "visual inspection of BPA dissolution", "setting": "15 mg BPA in 0.5 ml 0.12 M L-histidine (neutral pH)", "result": "no dissolution"},
      {"measurement": "visual inspection of BPA dissolution", "setting": "15 mg BPA in 0.5 ml 0.5 M L-arginine (pH over 11)", "result": "partial dissolution"},
      {"measurement": "visual inspection of BPA dissolution", "setting": "15 mg BPA in 0.5 ml 0.5 M L-serine (neutral pH)", "result": "no dissolution"},
      {"measurement": "visual inspection of BPA dissolution", "setting": "15 mg BPA in 0.5 ml 0.5 M NaOH", "result": "complete dissolution"},
      {"measurement": "visual inspection of BPA dissolution", "setting": "15 mg BPA in 0.5 ml 0.5 M Tris (Trizma base, pH over 10)", "result": "complete dissolution"},
      {"measurement": "visual inspection of BPA dissolution", "setting": "15 mg BPA in 0.5 ml 0.5 M Tris-HCl (pH 8)", "result": "partial dissolution"},
      {"measurement": "visual inspection of BPA dissolution", "setting": "15 mg BPA in 0.5 ml 0.5 M propylene glycol", "result": "no dissolution"},
      {"measurement": "visual inspection of BPA dissolution", "setting": "15 mg BPA in 0.5 ml 0.5 M sodium-potassium tartrate (neutral pH)", "result": "partial dissolution"},
      {"measurement": "visual inspection of BPA dissolution", "setting": "15 mg BPA in 0.5 ml 96% ethanol (v/v)", "result": "no dissolution"},
      {"measurement": "visual inspection of BPA dissolution", "setting": "15 mg BPA in 0.5 ml deionized water", "result": "no dissolution"},
      {"measurement": "visual inspection of BPA dissolution", "setting": "15 mg BPA, 0.25 ml 0.5 M NaOH followed by 0.5 ml 0.5 M L-serine", "result": "complete dissolution"}
    ]}
  ]
}
